The record followed here is article PMC3689833, “Neurochemical Changes in the Mouse Hippocampus Underlying the Antidepressant Effect of Genetic Deletion of P2X7 Receptors” (PLoS ONE, 2013).

Assay [1] deals with BDNF level in hippocampal slices. Kind of assay: BDNF protein assay (ELISA), in vitro study in hippocampal slices. It counts as cell-based, mouse. To be noted: BBG 100 nM. Here is the method:
The P2rx7 wild type and knockout mice were anesthetized under light CO2 inhalation and decapitated. The hippocampus was dissected in ice-cold Krebs solution saturated with 95% O2 and 5% CO2, sectioned (400 µm thick slices) using a McIlwain tissue chopper and incubated in 2 ml of modified Krebs solution in the presence of 1 ml Hibernate medium, ascorbic acid (300 µM) and Na2EDTA (30 µM) for 60 min. The medium was bubbled continuously with 95% O2 and 5% CO2 and maintained at 37°C. The P2rx7 agonist, BzATP, was added to the incubation solution for 30 min, whereas BBG was applied 15 min before BzATP application. RO-256981, 6-cyano-7-nitroquinoxaline-2,3-dione (CNQX) and 3-Chloro-4-fluoro-N-[4[[2(phenylcarbonyl)hydrazino]carbonyl]benzyl] benzenesulfonamide (TCN-201) were applied for 15 min, while MCPG was administered for 30 min. The group I metabotropic glutamate receptor agonist, dihydroxyphenylglycine (DHPG), was administered for 10 min. The DHPG, MCPG, and RO-256981 dosages were chosen based on previous studies, [47], [48]. In the experiments with BzATP, Mg^2+ was omitted from the incubation solution. The hippocampal slices were collected, frozen on dry ice and stored at −70°C until further investigation. Each experimental group contained 3–4 mice.
At the time of analysis, the samples were removed from the freezer and weighed. The BDNF extraction procedure was performed in accordance with the methods of a previous study. For the BDNF assays, 2 ml lysis buffer (100 mM PIPES, pH 7, 500 mM NaCl, 0.2% Triton X-100, 0.1% NaN3, 2% BSA, 2 mM EDTA, 200 µM PMSF, 10 µg/mL aprotinin, 1 µg/mL leupeptin, and 0.5 mM sodium vanadate) was added to each sample, and the hippocampus was sonicated at power level 2 using pulses at 1 sec intervals for 10–15 sec. Subsequently, the samples were centrifuged at 16,000 × g for 30 min at 4°C. 100 µl aliquots of the resulting supernatants were removed and diluted with 400 µl of DPBS buffer (137 mM NaCl, 2.68 mM KCl, 1.47 mM KH2PO4, 8.1 mM Na2HPO4 (pH 7.35), 0.9 mM CaCl2·H2O, and 0.5 mM MgCl2·H2O). The supernatants were collected and stored at −70?C until further analysis. For the total free BDNF measurement, the samples were acid treated with 1 µl of 1 N HCl for each 50 µl of diluted samples to decrease the pH to 2.5, followed by incubation at room temperature for 15 min. The samples were neutralized with 1 µl of 1 N NaOH for each 50 µl of diluted samples. The levels of BDNF (both precursor and mature forms) expression were evaluated using an enzyme-linked immunosorbent assay (ELISA) kit and a BDNF Emax ImmunoAssay System (Promega Corporation, Madison, WI, USA), which is specific for mouse BDNF protein, according to the manufacturer’s instructions. The BDNF levels were calculated by plotting the optical density (OD) of each sample against the standard curve. A seven-point standard curve using two-fold serial dilutions in Reagent Diluent (according the manufacturer’s instructions) and a high standard of 500 pg/ml were used for the determination of BDNF levels. The assay detection limits were <15 pg/ml. Absorbance was measured at 450 nm using a Perkin-Elmer Victor 3V 1420 Multilabel Counter.

For the next assay, the system named is P2rx7+/+ mice. Kind of assay: Automated tail suspension test (TST), LPS-induced depressive behavior. It is filed as in vivo, mouse. The note with it: LPS 1 mg/kg i.p. 24 h before, antagonist 50 mg/kg i.p. 30 min before test. As to the method:
All experiments and treatments were performed during the light phase (7.00 AM–7.00 PM). The TST was conducted using an automated tail suspension device (BIO-TST2, Bioseb, France) in accordance with a previously described method. The device consisted of a single tail suspension module with three chambers, connected to a personal computer that recorded the activity of the animals during the test sessions. Three mice were individually suspended by the tail onto the hooks of the device using adhesive tape (distance from tip of tail was 1–2 cm). The measurements were automatically recorded within 5–10 seconds after placing the last animal into the chamber, and each measurement lasted 6 min. […] The threshold level was set at 6. To examine endotoxin-induced depressive behavior, the animals were subjected to bacterial lipopolysaccharide injection (LPS, serotype 055:B5, Sigma, St. Louis, […], USA, 1 mg/kg i.p.) at 24 h before a single 6-min test period. Brilliant blue G (BBG, 50 mg/kg i.p.) or an equal volume of saline was injected at 30 min before the test period. The time of immobility was expressed in sec. The P2rx7+/+ and P2rx7−/− mice were subjected to alternation testing. […] The data of these animals were excluded from the calculations during the post hoc analysis.

Assay [2] concerns P2rx7+/+ and P2rx7−/− mice. In words: Sucrose preference test (SPT), LPS-induced anhedonia. The note with it: P2rx7+/+ mice, subacute 4-day 50 mg/kg i.p., LPS 0.2 mg/kg i.p. It is filed as in vivo, mouse. As to the method:
The experiments were performed using the two-bottle sucrose preference paradigm. The decreased preference for sucrose vs. water in this test has been proposed to reflect impaired sensitivity towards reward and to model anhedonia. Mice were offered a choice of 2% sucrose solution or water during 12-hour nocturnal periods (starting at 19∶00). The bottles were weighed before and after each test session to monitor sucrose and water consumption. The relative position of the sucrose and water bottles were swapped every night to avoid place preferences. The baseline sucrose intake was measured under a habituation period of 3–4 days before administering the treatments, and the mean volume ingested over the last 3 training sessions was used as a baseline value. The sucrose consumption was measured for 4 consecutive nights after LPS (0.2 mg/kg i.p.) or saline administration and expressed as g/100 g body weight or as a percentage of the baseline (%).

As to `CCOc1ccc(Nc2ccc(/C(=C3C=C/C(=[N+](/CC)Cc4cccc(S(=O)(=O)[O-])c4)C=C/3C)c3ccc(N(CC)Cc4cccc(S(=O)(=O)O)c4)cc3C)cc2)cc1` [BBG, Brilliant blue G], the “BDNF level in hippocampal slices in the presence of BzATP” value in assay [1] (P2rx7+/+ slices, + BzATP 100 µM, Mg2+-free, RO-256981 3 µM, MCPG 200 µM, DHPG 100 µM) came out at 77.87 ± 4.24 pg/mL. Moreover, in assay [1] (P2rx7+/+ slices), the “BDNF level in hippocampal slices” value came out at 118.22 ± 1.59 pg/mL and the “increase of basal BDNF level” value was 656%. In assay [1] (P2rx7−/− slices), the “BDNF level in hippocampal slices” value is 60.31 ± 0.31 pg/mL and the “increase of basal BDNF level” value was 272.7%. The “LPS-induced depressive behavior in TST (immobility)” value with P2rx7+/+ mice is “significantly attenuated”. Besides, in assay [2], the “sucrose consumption one day after LPS injection” value was “did not change” and the “sucrose consumption over subsequent days after LPS” value is given as “significantly increased”.
